Patent US20200170932A1, “EXTENDED RELEASE L-TRI-IODOTHYRONINE SAFELY NORMALIZES KEY ELEMENTS OF MOLECULAR PATHOLOGY IN ALZHEIMERS DISEASE” (priority 2018, published 2020)

Experiments:
[1] = system: patients with AD; assay: Administering T3 to patients with AD (clinical observation); format: in vivo, human
Excerpt: The noradrenerigic neurotransmitter system is dependent on normal thyroid hormone activity for normal function. A deficient amount of thyroid hormone activity leads to downregulation of the noradrenergic system. This leads to attenuated postsynaptic effects and a failure to prosecute the noradrenergic mandate. In AD this phenomenon accounts for various signs and symptoms. There are aberrations of the diurnal rhythm including insomnia and daytime somnolence. Depression and/or anxiety may occur. Drooping of the upper eyelid (ptosis) is frequently seen in AD. The levator palpebrae superioris muscle, the elevator of the upper eyelid, is partially innervated by the sympathetic nervous system.

[2] = system: rat model of AD; conditions: rat model of AD (Sarkar); cited from earlier work
[3] = following ingestion; cited from earlier work
[4] = compounding pharmacies' technology, personal communication; cited from earlier work

For `N[C@@H](Cc1cc(I)c(Oc2ccc(O)c(I)c2)c(I)c1)C(=O)O` [T3, 3,5,3′-triiodothyronine], the “countenance and alertness (ptosis, adrenergic dysregulation)” value [1] is listed as “rapid, within days, and dramatic wide-eyed countenance and an appearance of increased alertness”, the “histology, memory and electrophysiological activity in the cholinergic system” value [2] is listed as “improved histology, memory and electrophysiological activity in the cholinergic system” and the “time to peak levels” value [3] is listed as “one to two”. For the same molecule, the “time of release to completion” value [4] was 2 to 8 h.
